Data published in PMC6321537 (Molecules, 2018).
In brackets after ≈: the same amount, converted by molar mass. Read-outs that look alike come from different tables or passages of the source.

Experiments:
[1] = test system: breast cancer cells MDA-MB-231; assay: MTT cytotoxicity assay; type: cell-based; conditions: Homo sapiens
Protocol: (§1) In vitro anti-cancer effects against cancer cells and safety to normal cells of the prodrugs were evaluated by cytotoxicity.
(§2) MDA-MB-231 cells were seeded in a 96-well transparent plate, at a density of 5000 cells/well. […] After 72 h incubation, the plates were washed with HBSS and MTT solution was added. The final concentration of MTT in each well was 0.5 mg/mL. Then 4 h later, the solution on the plate was removed and the content was dissolved with DMSO [33].The absorption was measured at 490 nm and cell viability was calculated, cell viability% = OD of treated cells/OD of untreated cells × 100% [51].

[2] = test system: normal breast cells Hs578Bst; assay: MTT cytotoxicity assay; type: cell-based
Protocol: as §1, §2

[3] = Log P by miniaturized shake flask method (n-octanol/water); type: physicochemical; conditions: shaken 24 h, mean ± SD, n = 4
Protocol: Log P and was determined by a miniaturized shake flask method. Briefly, the organic phase consisted of n-octanol saturated with water. Respectively, the aqueous phase consisted of water saturated with n-octanol.

[4] = test system: ovarian cancer cells A2780; assay: MTT cytotoxicity assay; type: cell-based; conditions: Homo sapiens
[5] = test system: MDA-MB-231 cells; assay: Annexin V-FITC/PI apoptosis assay (flow cytometry); type: cell-based; conditions: MDA-MB-231, 1 μM, 24 h
Protocol: Cell apoptosis was tested by an Annexin V-FITC/PI staining assay and analyzed by flow cytometry, the result is illustrated in Figure 6. According to Figure 6a, the four regions represent different cell stages. Q1 represents necrotic cells ([…]), Q2 and Q3 represent late apoptotic cells (Annexin V+/PI+) and early apoptotic cells (Annexin V+/PI–), and Q4 represents normal cells (Annexin V–/PI–).
MDA-MB-231 cells were seeded in a 6-well transparent plate, at a density of 5 × 10^5 cells/well. […] After 24 h incubation, the cells were harvested by trypsin, washed with HBSS, and 1 mL of binding buffer (containing Annexin V-FITC and PI) was added, final concentration of Annexin V-FITC and PI were both 1 μg/mL [52]. After that, the test system was incubated in the dark for 10 min, then analysis was immediately conducted by flow cytometry. The fluorescence intensity of Annexin V-FITC was measured at an excitation/emission wavelength of 488/530 nm, the fluorescence intensity of PI was measured at an excitation/emission wavelength of 488/617 nm. Each assay was repeated in triplicate.

[6] = Solubility measurements in injection media (excess powder, HPLC); type: physicochemical; conditions: for solubility at 72 h: thermodynamic from solid; for aqueous solubility as times that of the parent drug (PTX): relative to PTX 0.4 μg/mL
Protocol: The flow rate was 1 mL/min, with the mobile phase starting at 50% acetonitrile and 50% water and transitioning to 60% acetonitrile and 40% water at 13 min, then returning to 50% acetonitrile and 50% water at 25 min. Chromatographic peaks of the three compounds were identified based on their retention times and chromatographic responses. Peak area measurements were utilized to regress calibration curves to determine each compound.
The test system was shaken at 25 °C for 72 h, then centrifugated at 10,000 rpm for 10 min. Each supernate was collected and 0.22 μm filtered off, then determined by HPLC.

[7] = cited from earlier work
[8] = Solubility of SG-PTX in various formulations (surfactant solutions); type: physicochemical; conditions: for solubility at 72 h: 25 °C, aqueous with cosolvent or surfactant or cyclodextrin, thermodynamic from solid, no ethanol, read-out: solubility in formulation
Protocol: Solubility of SG-PTX in various formulations was tested, SG-PTX was added into formulations with different proportion (v/v) of water and surfactants. These solubility tests were carried out according to the same protocol as aqueous solubility assays.
Solutions of different surfactants (Cremophor EL, Tween-80, and PEG-400) were prepared at different concentrations of 2.5%, 5%, 10%, and 15% (v/v). Excess powder of SG-PTX was added into different formulations, respectively. The test system was shaken at 25 °C for 72 h, then centrifugation at 10,000 rpm for 10 min. Each supernate was collected and 0.22 μm filtered off, then determined by HPLC.

[9] = Solubility of SG-PTX at various pH conditions; type: physicochemical
Protocol: An aqueous solution of different pH was adjusted by HCl or NaOH, Excess powder of SG-PTX was added to solutions of different pH, respectively. The test system was shaken at 25 °C for 72 h, then centrifugation at 10,000 rpm for 10 min. Each supernate was collected and 0.22 μm filtered off, then determined by HPLC.

[10] = 25 °C, saline or isotonic, 5% glucose solution, 25 °C, shaken 72 h, mean ± SD, n = 4, read-out: Solubility, 5% Glucose
[11] = 25 °C, saline or isotonic, saline, 25 °C, shaken 72 h, mean ± SD, n = 4, read-out: Solubility, Saline
[12] = 25 °C, water, pure water, 25 °C, shaken 72 h, mean ± SD, n = 4, read-out: Solubility, Pure Water

Structure (SMILES)	IC50 ([1]; MDA-MB-231, 72 h)	IC50 ([2]; Hs578Bst, 72 h)	logP at 24 h [3]	IC50 ([4]; A2780, 72 h)	total percentage of apoptotic cells (late apoptosis + early apoptosis) [5]	solubility at 72 h [6, 10]	solubility at 72 h [6, 11]	solubility at 72 h [6, 12]	aqueous solubility as times that of the parent drug (PTX) [6]	further results
CC(=O)O[C@H]1C(=O)[C@]2(C)[C@@H](OC(=O)CCC(=O)OC3O[C@H](CO)[C@@H](O)[C@H](O)[C@H]3O)C[C@H]3OC[C@@]3(OC(C)=O)[C@H]2[C@H](OC(=O)c2ccccc2)[C@]2(O)C[C@H](OC(=O)[C@H](OC(=O)CCC(=O)OC3O[C@H](CO)[C@@H](O)[C@H](O)[C@H]3O)[C@@H](NC(=O)c3ccccc3)c3ccccc3)C(C)=C1C2(C)C (stereo partly shown) [DG-PTX, C7 and C2′-double glycosylated paclitaxel]	395 nM	> 2000 nM	2.12 ± 0.08	1610 nM	14.6%	34.8 ± 4.22 µg/mL (≈ 25.2 µM)	36.7 ± 2.05 µg/mL (≈ 26.6 µM)	39 ± 5.66 µg/mL (≈ 28.3 µM)	97.4 times	–
CC(=O)O[C@H]1C(=O)[C@@]2(C)[C@H]([C@H](OC(=O)c3ccccc3)[C@]3(O)C[C@H](OC(=O)[C@H](O)[C@@H](NC(=O)c4ccccc4)c4ccccc4)C(C)=C1C3(C)C)[C@]1(OC(C)=O)CO[C@@H]1C[C@@H]2O [PTX, Paclitaxel, reference compound]	–	–	–	–	37.5%	–	–	–	–	IC50 ([1]; MDA-MB-231, 72 h incubation, MTT, read-out: IC50): 30.5 nM; IC50 ([2]; Hs578Bst normal breast cells, 72 h incubation, MTT, read-out: IC50): 632 nM; Log P [7]: 3.97 [27]; IC50 ([4]; A2780, 72 h incubation, MTT, read-out: IC50): 194 nM; solubility at 72 h ([6]; 5% glucose solution, 25 °C, saline or isotonic, 5% glucose solution, 25 °C, shaken 72 h, mean ± SD, n = 4, read-out: Solubility, 5% Glucose): < 1 µg/mL; solubility at 72 h ([6]; pure water, 25 °C, water, pure water, 25 °C, shaken 72 h, mean ± SD, n = 4, read-out: Solubility, Pure Water): < 1 µg/mL; solubility at 72 h ([6]; saline, 25 °C, saline or isotonic, saline, 25 °C, shaken 72 h, mean ± SD, n = 4, read-out: Solubility, Saline): < 1 µg/mL
CC(=O)O[C@H]1C(=O)[C@@]2(C)[C@H]([C@H](OC(=O)c3ccccc3)[C@]3(O)C[C@H](OC(=O)[C@H](OC(=O)CCC(=O)OC4O[C@H](CO)[C@@H](O)[C@H](O)[C@H]4O)[C@@H](NC(=O)c4ccccc4)c4ccccc4)C(C)=C1C3(C)C)[C@]1(OC(C)=O)CO[C@@H]1C[C@@H]2O (stereo partly shown) [SG-PTX, C2′-single glycosylated paclitaxel]	149 nM	1670 nM	2.77 ± 0.16	1080 nM	21.23%	17.9 ± 0.28 µg/mL (≈ 16 µM)	17.83 ± 0.09 µg/mL (≈ 16 µM)	17.9 µg/mL (≈ 16 µM)	49.8 times	solubility at 72 h ([8]; 2.5% (v/v) Cremophor EL in water): 807 µg/mL (≈ 723 µM); solubility at 72 h ([8]; 2.5% (v/v) Tween-80 in water): 468 µg/mL (≈ 419 µM); solubility at 72 h ([8]; 15% (v/v) Cremophor EL in water): 1320 µg/mL (≈ 1180 µM); solubility at 72 h ([8]; 15% (v/v) Tween-80 in water): 961 µg/mL (≈ 861 µM); solubility in formulation ([8]; PEG-400 in water, compared with Cremophor EL and Tween-80): the lowest; solubility at 72 h ([9]; aqueous solution, pH adjusted with HCl or NaOH, aqueous buffer, thermodynamic from solid, pH 9 and pH 10, water and two common injection media, 25 °C): ~27 µg/mL (≈ 24.2 µM); change of solubility with pH ([9]; pH level of 1 to 8): no significant change; Solubility, Pure Water ([6]; pure water, 25 °C, shaken 72 h, mean ± SD, n = 4): 19.93 ± 4.07 µg/mL (≈ 17.9 µM)
